The target in assay [1] is T1, ABL1 (64-515) (Homo sapiens (Human), UniProt P00519). Nature of the assay: Caliper ABL1 (64-515) microfluidic mobility shift kinase assay. To be noted: read-out: Caliper ABL1 (64-515) IC50.
Assay [2] addresses T1, ABL1 (64-515). Description: Radio ABL1 (64-515) radiometric filter-binding kinase assay. Conditions: 20 μM ATP. It counts as biochemical.
Protocol: Pre-incubation of enzyme with compounds (when stated) was performed by exposing the enzyme to compounds prior to addition of the substrate mixture (ATP and/or peptide substrate). […] Filter-plates were washed 3× with 0.5% H3PO4, followed by addition of 30 μL scintillation cocktail (Microscint, Perkin Elmer) per well and then analysed in a TopCount NXT scintillation counter (Perkin Elmer). Results were expressed as IC50 values.

T1 sequence (P00519 64-515): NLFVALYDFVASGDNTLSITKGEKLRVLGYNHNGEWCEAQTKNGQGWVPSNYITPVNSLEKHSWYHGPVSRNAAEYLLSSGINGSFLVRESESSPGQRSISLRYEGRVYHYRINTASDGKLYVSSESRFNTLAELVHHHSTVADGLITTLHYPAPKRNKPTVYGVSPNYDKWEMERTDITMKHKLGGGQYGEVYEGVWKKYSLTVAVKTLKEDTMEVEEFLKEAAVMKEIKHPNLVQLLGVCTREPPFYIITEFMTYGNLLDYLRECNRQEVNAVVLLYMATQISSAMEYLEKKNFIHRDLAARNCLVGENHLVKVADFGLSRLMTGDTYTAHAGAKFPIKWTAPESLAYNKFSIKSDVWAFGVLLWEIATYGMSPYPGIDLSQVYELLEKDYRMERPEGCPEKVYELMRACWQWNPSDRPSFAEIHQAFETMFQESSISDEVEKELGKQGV

As for `O=C(Nc1ccc(OC(F)(F)F)cc1)c1ccc(N2C[C@H](O)[C@@H](O)C2)c(-c2ccc[nH]2)c1` [Example 28, 4-((3S,4S)-3,4-Dihydroxypyrrolidin-1-yl)-3-(1H-pyrrol-2-yl)-N-(4-(trifluoromethoxy)phenyl)benzamide], the IC50 (as a rule, the concentration needed to halve the response being measured) turned out to be 4.2 nM at ABL1 (64-515) [1] and 3 nM at ABL1 (64-515) [2].
For `N#Cc1ccc(-c2cc(C(=O)Nc3ccc(OC(F)(F)F)cc3)ccc2N2C[C@H](O)[C@@H](O)C2)[nH]1` [Example 29, 3-(5-Cyano-1H-pyrrol-2-yl)-4-((3S,4S)-3,4-dihydroxypyrrolidin-1-yl)-N-(4-(trifluoromethoxy)phenyl)benzamide] the same measures were 0.5 nM and below 0.1 nM.
For `N#Cc1ccc(-c2cc(C(=O)Nc3ccc(OC(F)(F)F)cc3)cnc2N2C[C@H](O)[C@@H](O)C2)[nH]1` [Example 31, 5-(5-Cyano-1H-pyrrol-2-yl)-6-((3S,4S)-3,4-dihydroxypyrrolidin-1-yl)-N-(4-(trifluoromethoxy)phenyl)nicotinamide], in that order: below 0.13 nM and below 0.1 nM.
Regarding `NC12CC1CN(c1ncc(C(=O)Nc3ccc(OC(F)(F)F)cc3)cc1-c1ccn[nH]1)C2` (centres unmarked) [Example 33, 6-(1-Amino-3-azabicyclo[3.1.0]hexan-3-yl)-5-(1H-pyrazol-5-yl)-N-(4-(trifluoromethoxy)phenyl)nicotinamide], the values for the concentration for half-maximal inhibition (IC50) at ABL1 (64-515) [1] and at ABL1 (64-515) [2] were 5 nM and 3 nM, respectively.
On to `O=C(Nc1ccc(OC(F)(F)F)cc1)c1cnc(N2CCOC(CO)C2)c(-c2ccn[nH]2)c1` (centres unmarked) [Example 36, 6-(2-(Hydroxymethyl)morpholino)-5-(1H-pyrazol-5-yl)-N-(4-(trifluoromethoxy)phenyl)nicotinamide], for which the IC50 on ABL1 (64-515) [1] is 8.1 nM; at ABL1 (64-515) [2], 5 nM.
For `CN(C)C1CN(c2ncc(C(=O)Nc3ccc(OC(F)(F)F)cc3)cc2-c2ccn[nH]2)C1` [Example 38, 6-(3-(Dimethylamino)azetidin-1-yl)-5-(1H-pyrazol-5-yl)-N-(4-(trifluoromethoxy)phenyl)nicotinamide], the half-maximal inhibitory concentration (IC50) on ABL1 (64-515) [1] amounted to 1.5 nM; on ABL1 (64-515) [2] it was 8 nM.
On to `O=C(Nc1ccc(OC(F)(F)F)cc1)c1cnc(N2CC(CO)C2)c(-c2ccn[nH]2)c1` [Example 39, 6-(3-(Hydroxymethyl)azetidin-1-yl)-5-(1H-pyrazol-5-yl)-N-(4-(trifluoromethoxy)phenyl)nicotinamide], for which the IC50 came to 4.5 nM at ABL1 (64-515) [1] and 3 nM at ABL1 (64-515) [2].
As to `CC1(O)CN(c2ncc(C(=O)Nc3ccc(OC(F)(F)F)cc3)cc2-c2ccn[nH]2)C1` [Example 40, 6-(3-Hydroxy-3-methylazetidin-1-yl)-5-(1H-pyrazol-5-yl)-N-(4-(trifluoromethoxy)phenyl)nicotinamide], the IC50 on ABL1 (64-515) [1] turned out to be 5.3 nM; at ABL1 (64-515) [2], 4 nM.
Consider `Cc1cc(-c2cc(C(=O)Nc3ccc(OC(F)(F)F)cc3)cnc2N2CC(CO)C2)[nH]n1` [Example 42, 6-(3-(Hydroxymethyl)azetidin-1-yl)-5-(3-methyl-1H-pyrazol-5-yl)-N-(4-(trifluoromethoxy)phenyl)nicotinamide], for which the 50% inhibitory concentration (IC50) on ABL1 (64-515) [1] was determined as 18 nM; at ABL1 (64-515) [2], 2 nM.
Turning to `N#Cc1cc(-c2cc(C(=O)Nc3ccc(OC(F)(F)F)cc3)cnc2N2CCCC2)[nH]n1` [Example 44, 5-(3-Cyano-1H-pyrazol-5-yl)-6-(pyrrolidin-1-yl)-N-(4-(trifluoromethoxy)phenyl)nicotinamide], the IC50 at ABL1 (64-515) [1] was found to be 7.1 nM; at ABL1 (64-515) [2], 19 nM.
Turning to `N#Cc1ccc(-c2cc(C(=O)Nc3ccc(OC(F)(F)Cl)cc3)cnc2N2C[C@H](O)[C@@H](O)C2)[nH]1` [Example 46, N-(4-(Chlorodifluoromethoxy)phenyl)-5-(5-cyano-1H-pyrrol-2-yl)-6-((3S,4S)-3,4-dihydroxypyrrolidin-1-yl)nicotinamide], the IC50 at ABL1 (64-515) [1] amounted to 0.4 nM; at ABL1 (64-515) [2], 1 nM.
For `Cn1c(C#N)ccc1-c1cc(C(=O)Nc2ccc(OC(F)(F)Cl)cc2)cnc1N1CC[C@@H](O)C1` [Example 47, (R)—N-(4-(Chlorodifluoromethoxy)phenyl)-5-(5-cyano-1-methyl-1H-pyrrol-2-yl)-6-(3-hydroxypyrrolidin-1-yl)nicotinamide], in that order: 1.6 nM and 0.9 nM.
Consider `NCC1(F)CCN(c2ncc(C(=O)Nc3ccc(OC(F)(F)Cl)cc3)cc2-c2ccn[nH]2)C1` (centres unmarked) [Example 51, 6-(3-(Aminomethyl)-3-fluoropyrrolidin-1-yl)-N-(4-(chlorodifluoromethoxy)phenyl)-5-(1H-pyrazol-5-yl)nicotinamide], for which the IC50 at ABL1 (64-515) [1] was 1.1 nM; at ABL1 (64-515) [2], 4.9 nM.
With `CN(C)[C@H]1CN(c2ncc(C(=O)Nc3ccc(OC(F)(F)Cl)cc3)cc2-c2ccn[nH]2)C[C@@H]1O` [Example 53, N-(4-(Chlorodifluoromethoxy)phenyl)-6-((3S,4S)-3-(dimethylamino)-4-hydroxypyrrolidin-1-yl)-5-(1H-pyrazol-5-yl)nicotinamide], the IC50 at ABL1 (64-515) [1] was 1.4 nM; at ABL1 (64-515) [2], below 0.1 nM.
For `NC12CC1CN(c1ncc(C(=O)Nc3ccc(OC(F)(F)Cl)cc3)cc1-c1ccn[nH]1)C2` (centres unmarked) [Example 54, 6-(1-Amino-3-azabicyclo[3.1.0]hexan-3-yl)-N-(4-(chlorodifluoromethoxy)phenyl)-5-(1H-pyrazol-5-yl)nicotinamide], in that order: 0.4 nM and 1 nM.
For `N[C@@H]1[C@H]2CN(c3ncc(C(=O)Nc4ccc(OC(F)(F)Cl)cc4)cc3-c3ccn[nH]3)C[C@@H]12` [Example 55, 6-((1R,5S,6s)-6-Amino-3-azabicyclo[3.1.0]hexan-3-yl)-N-(4-(chlorodifluoromethoxy)phenyl)-5-(1H-pyrazol-5-yl)nicotinamide] the same measures were 0.2 nM and 1 nM.
For `O=C(Nc1ccc(OC(F)(F)Cl)cc1)c1cnc(N2CCNC3(CC3)C2)c(-c2ccn[nH]2)c1` [Example 56, N-(4-(Chlorodifluoromethoxy)phenyl)-5-(1H-pyrazol-5-yl)-6-(4,7-diazaspiro[2.5]octan-7-yl)nicotinamide] the same measures were 2.9 nM and 1 nM.
On to `O=C(Nc1ccc(OC(F)(F)Cl)cc1)c1cnc(N2CCN(C3CC3)CC2)c(-c2ccn[nH]2)c1` [Example 57, N-(4-(Chlorodifluoromethoxy)phenyl)-6-(4-cyclopropylpiperazin-1-yl)-5-(1H-pyrazol-5-yl)nicotinamide], for which the IC50 on ABL1 (64-515) [1] stood at 3.4 nM; at ABL1 (64-515) [2], 5.8 nM.
Take `O=C(Nc1ccc(OC(F)(F)Cl)cc1)c1cnc(N2CCN(CCF)CC2)c(-c2ccn[nH]2)c1` [Example 58, N-(4-(Chlorodifluoromethoxy)phenyl)-6-(4-(2-fluoroethyl)piperazin-1-yl)-5-(1H-pyrazol-5-yl)nicotinamide]: the results for the IC50 at ABL1 (64-515) [1] and on ABL1 (64-515) [2] were 2.4 nM and 5.7 nM, respectively.
For `O=C(Nc1ccc(OC(F)(F)Cl)cc1)c1cnc(N2CCN(CC(F)F)CC2)c(-c2ccn[nH]2)c1` [Example 59, N-(4-(Chlorodifluoromethoxy)phenyl)-6-(4-(2,2-difluoroethyl)piperazin-1-yl)-5-(1H-pyrazol-5-yl)nicotinamide] the same measures were 3.3 nM and 26 nM.
With `O=C(Nc1ccc(OC(F)(F)Cl)cc1)c1cnc(N2CCN(CC(F)(F)F)CC2)c(-c2ccn[nH]2)c1` [Example 60, N-(4-(Chlorodifluoromethoxy)phenyl)-5-(1H-pyrazol-5-yl)-6-(4-(2,2,2-trifluoroethyl)piperazin-1-yl)nicotinamide], the IC50 on ABL1 (64-515) [1] is below 0.64 nM; on ABL1 (64-515) [2], 1 nM.
For `NC1CN(c2ncc(C(=O)Nc3ccc(OC(F)(F)Cl)cc3)cc2-c2ccn[nH]2)C1` [Example 64, 6-(3-Aminoazetidin-1-yl)-N-(4-(chlorodifluoromethoxy)phenyl)-5-(1H-pyrazol-5-yl)nicotinamide] the same measures were 0.2 nM and 4 nM.
Turning to `CN(C)C1CN(c2ncc(C(=O)Nc3ccc(OC(F)(F)Cl)cc3)cc2-c2ccn[nH]2)C1` [Example 65, N-(4-(Chlorodifluoromethoxy)phenyl)-6-(3-(dimethylamino)azetidin-1-yl)-5-(1H-pyrazol-5-yl)nicotinamide], the IC50 at ABL1 (64-515) [1] turned out to be 0.9 nM; on ABL1 (64-515) [2] it was 5.6 nM.
Regarding `CC1(O)CN(c2ncc(C(=O)Nc3ccc(OC(F)(F)Cl)cc3)cc2-c2ccn[nH]2)C1` [Example 66, N-(4-(Chlorodifluoromethoxy)phenyl)-6-(3-hydroxy-3-methylazetidin-1-yl)-5-(1H-pyrazol-5-yl)nicotinamide], the IC50 on ABL1 (64-515) [1] stood at 0.8 nM; at ABL1 (64-515) [2], 1.5 nM.
For `O=C(Nc1ccc(OC(F)(F)Cl)cc1)c1cnc(N2CC3(CNC3)C2)c(-c2ccn[nH]2)c1` [Example 68, N-(4-(Chlorodifluoromethoxy)phenyl)-5-(1H-pyrazol-5-yl)-6-(2,6-diazaspiro[3.3]heptan-2-yl)nicotinamide], in that order: below 0.13 nM and 2 nM.
As for `N[C@H]1CN(c2ccc(C(=O)Nc3ccc(OC(F)(F)Cl)cc3)cc2-c2ccn[nH]2)C[C@@H]1O` [Example 76, 4-((3S,4S)-3-Amino-4-hydroxypyrrolidin-1-yl)-N-(4-(chlorodifluoromethoxy)phenyl)-3-(1H-pyrazol-5-yl)benzamide], the IC50 at ABL1 (64-515) [1] was 1.4 nM; at ABL1 (64-515) [2], 3 nM.
For the molecule `Cc1cc(-c2cc(C(=O)Nc3ccc(OC(F)(F)Cl)cc3)ccc2N2C[C@H](N)[C@@H](O)C2)[nH]n1` [Example 84, 4-((3S,4S)-3-Amino-4-hydroxypyrrolidin-1-yl)-N-(4-(chlorodifluoromethoxy)phenyl)-3-(3-methyl-1H-pyrazol-5-yl)benzamide], the IC50 at ABL1 (64-515) [1] came out at 0.8 nM; at ABL1 (64-515) [2] it was 2 nM.
For `O=C(Nc1ccc(OC(F)(F)Cl)cc1)c1cnc(N2CCC(O)CC2)c(-c2ccn[nH]2)c1` [Example 85, N-(4-(Chlorodifluoromethoxy)phenyl)-6-(4-hydroxypiperidin-1-yl)-5-(1H-pyrazol-5-yl)nicotinamide] the same measures were 0.7 nM and 2 nM.

The values above are taken from patent US9340537B2, “Benzamide derivatives for inhibiting the activity of ABL1, ABL2 and BCR-ABL1” (NOVATIS AG, priority 2012, dated 2016).
